Reference: patent US10934263B2, “Charged ion channel blockers and methods for use” (Nocion Therapeutics, Inc., priority 2019, dated 2021)

How the values were obtained:
[1] = target: T1, NaV1.7 (Homo sapiens, UniProt Q15858); assay: Whole cell patch clamp, internal block of NaV1.7 current (compound in internal solution); assay type: cell-based; details: compound applied internally, manual patch clamp, read-out: Nav1.7 Intracellular Inhibition
T1 construct: expressed in transfected cells; tetracycline-inducible, kept under hygromycin and blasticidin
Protocol: Representative compounds of the invention were synthesized according to the described methods and tested for the ability to inhibit voltage-gated sodium channels.
NaV1.7 was expressed upon induction with tetracycline. Cells were cultured in DMEM containing 10% dialyzed Fetal Bovine Serum (VWR, Radnor, Pa.), 1% Glutamax (VWR, Radnor, Pa.), 1% Penicillin-Streptomycin (VWR, Radnor, Pa.), 100 mg/L Hygromycin (Thermo Fisher Scientific, Waltham, Mass. and 5 mg/L Blasticidin (Alfa Aesar, Haverhill, Mass.). Cells were grown and maintained at 37° C. in a humidified environment containing 10% CO2 in air. Cells were detached from the culture flask for passage and harvested using 0.05% Trypsin-EDTA (Thermo Fisher Scientific, Waltham, Mass.). To induce NaV1.7, cells were induced with tetracycline (0.1-1 μg/mL, IBI Scientific, Peosta, Iowa) the day before recording and plated onto 24-well plates. Cells were washed with DPBS (VWR, Radnor, Pa.), trypsinized and then triturated five times in 10 mL of growth media to break apart cell aggregates. For one 24-well plate, 2 mL of cell suspension was mixed with 23 mL of fresh growth media and 0.1-1 μg/mL tetracycline added. 1 ml of mixed media with cells was then added to each well of a 24-well plate, with a 12 mm coverslip already placed in the bottom of the well. Cells were then incubated in 37° C. and 10% CO2 overnight.
The intracellular solution contained the following (in mM) CsCl 135, NaCl 10, EGTA 10, HEPES 10, MgCl2 2, adjusted to pH 7.2 with CsOH. The external solution was a normal Ringer solution containing (in mM) NaCl 155, HEPES 10, glucose 10, KCl 3.5, CaCl2 1.5, MgCl2 1 adjusted to pH 7.4 with NaOH. CsCl is from Alfa Aesar, Haverhill, Mass. All other chemicals are from Sigma-Aldrich, St. Louis, Mo. In order to test the degree of internal block by test compounds the compounds were dissolved in internal solution at the indicated test concentration. […] In order to test the degree of external block by test compounds the compounds were dissolved in external solution at the indicated test concentration.
18-24 hours after cells were induced with tetracycline, coverslips were placed into a chamber filled with Normal Ringer solution at room temperature and the chamber placed on a microscope. Pipettes were pulled from borosilicate glass on a P97 puller (Sutter Instrument, Novato, Calif.) and polished with a MF-830 Microforge (Narishige International USA, Inc, Amityville, N.Y.) to have a resistance of 1.5-2.5 MΩ when filled with CsCl internal solution at room temperature. Healthy cells (those that are round and translucent with no visible blemishes) were chosen for seal formation. A seal was formed between the pipette and the cell, and a brief pulse of suction was used to “break in” and establish the whole-cell configuration. The membrane potential was held at −100 mV before the voltage protocol began. Only cells with series resistance between 1.5-5 MΩ were retained for analysis. The voltage protocol was as follows: Cells were held at −100 mV for 12 ms followed by a hyperpolarizing step to −105 mV for 12 ms to monitor the leak. Cells were then stepped back to −100 mV for 40 ms. Cells were then depolarized to −20 mV for 10 ms and then returned to −100 mV for 26 ms.
Once the recording was started, the voltage protocol was run at 30 second intervals for 5 minutes to get a stable baseline. This was followed by four 30-second periods of 5 Hz stimulation of the same voltage protocol separated by 1 minute of rest which was then followed by 0.33 Hz stimulation after the last train. Currents were recorded using PatchMaster software with Heka EPC10 (HEKA Electronics, Lambrecht, Germany). Only cells with inward current amplitudes at −20 mV between 400 pA and 4 nA were accepted. In addition, cells having leak currents greater than 10% of their current amplitudes were discarded. […]

[2] = target: T1, NaV1.7; assay: Automated patch clamp (Qube 384), internal block of NaV1.7 in HEK293 cells; assay type: cell-based; details: compound in internal solution, read-out: Nav1.7 Intracellular Inhibition (IC50)
Protocol: (§1) NaV1.7 was expressed in HEK293 cells upon induction with tetracycline. Cells were cultured in DMEM containing 10% dialyzed Fetal Bovine Serum (VWR, Radnor, Pa.), 1% Glutamax (VWR, Radnor, Pa.), 1% Penicillin-Streptomycin (VWR, Radnor, Pa.), 100 mg/L Hygromycin (Thermo Fisher Scientific, Waltham, Mass. and 5 mg/L Blasticidin (Alfa Aesar, Haverhill, Mass.). Cells were grown and maintained at 37° C. in a humidified environment containing 10% CO2 in air. Cells were detached from the culture flask for passage and harvested using 0.05% Trypsin-EDTA (Thermo Fisher Scientific, Waltham, Mass.). To induce NaV1.7, cells were induced with tetracycline (0.1-1 μg/mL, IBI Scientific, Peosta, Iowa) the day before recording.
(§2) Before experiments, cells were washed with DPBS (VWR, Radnor, Pa.), digested with Detachin (VWR Radnor, Pa.) and then triturated 10 times in CHO Serum-Free Media (VWR Radnor, Pa.) to resuspend the cells and to break apart cell aggregates. Cells were counted and the final concentration was set at 2-5 million cells per mL.
(§3) The intracellular solution contained the following: 140 mM CsF, 1 mM/5 mM EGTA/CsOH, 10 mM HEPES, 10 mM NaCl, adjusted to pH 7.3 with CsOH, and osmolality to 320 with sucrose. The external solution contained the following: 145 mM NaCl, 4 mM KCl, 1 mM MgCl2, 2 mM CaCl2, 10 mM HEPES, 10 mM Glucose, adjusted to pH 7.4 with CsOH and osmolality to 305 with sucrose. All chemicals are from Sigma-Aldrich, St. Louis, Mo. In order to test the degree of internal block by test compounds, the compounds were dissolved in internal solution at the indicated test concentration. […] In order to test the degree of external block by test compounds the compounds were dissolved in external solution at the indicated test concentration.
(§4) Automated Patch Clamps were performed on Qube 384 (Sophion Bioscience, Woburn Mass.) with multihole Qchips at a temperature setting of 22 degrees. The whole cells configuration was formed with default Qube seal and break-in parameter. The membrane potential was held at −100 mV before the voltage protocol began. Two voltage protocols were followed.
(§5) Step 1: Cells were held at −100 mV with a depolarized pulse to −20 mV for 10 ms, the interval was set at 5 s. Currents were corrected by default leak subtraction from every pulse. The duration was set at 5 mins.
(§6) Step 2: Cells were held at −100 mV with a depolarized pulse to −20 mV for 10 ms. The frequency was 5 Hz. Currents were corrected by leak subtraction calculated before step 2. The duration was set at 4 mins.
After Step 2, the Qchip was removed from the recording chamber. The internal solution was changed with solutions containing test compounds. Qchips were held at −100 mV without pulsing after being replaced in the recording chamber. The total solution switching time was 8 minutes. After the internal solution exchange, Cells were recorded and step 2 for repeated for 10 minutes.
Data analysis was performed by Sophion Analyzer. Cells were filtered with minimum 50 MOhm seal resistance and minimum 5 nA starting current. The rundown of the currents was corrected with control cells (Non-Drug). The remaining was calculated by averaging last 3 points in the end of experiments. The base line was calculated as the average of last 3 points of Step 2. IC50 curves were plotted with DR-plots/Hill function (a dose-response plot with a Hill fit). Data analysis was performed by Sophion Analyzer.

[3] = target: T1, NaV1.7; assay: Automated patch clamp (Qube 384), external block of NaV1.7 in HEK293 cells; assay type: cell-based; details: compound in external solution, read-out: Nav1.7 Extracellular Inhibition (IC50)
Protocol: as §1, §2, §3, §4, §5, §6
After Step 2, the external solution was changed with solutions containing test compounds. Qchips were held at −100 mV without pulsing. The total solution switching time was 8 minutes. After the external solution exchange, cells were recorded using the same procedure as step 2 for 10 minutes.
Data analysis was performed by Sophion Analyzer. Data were corrected with control cells (Non-Drug). The IC50 data were plotted with DR-plots/Hill function (a dose-response plot with a Hill fit).

[4] = PAMPA membrane permeability assay; assay type: in vitro ADME; details: PAMPA permeability coefficient, GIT lipid, buffer pH 7.4, 4 hours incubation
Protocol: The PAMPA assay (pION, Inc., Woburn Mass.) was used to determine the ability of compounds of the invention to cross an artificial lipid membrane by passive diffusion. Test compounds were dissolved in DMSO (10 mM) and diluted 200-fold in buffer (pION Inc., pH 7.4) to provide 50 uM stock solutions. Buffer (150 μL) was added to a UV blank plate and stock solutions (150 μL) were transferred to a UV reference plate. The blank and reference spectrum were read using a spectrophotometer. Stock solutions (200 μL) were added to the donor plate of the PAMPA sandwich plate and an accept plate painted with GIT lipid (pION Inc, 5 μL) was placed on top. Buffer (200 μL) was added to the acceptor plate and the PAMPA sandwich plate was incubated for 4 hours. Aliquots (150 μL) from the acceptor plate were added to a UV plate and read as acceptor spectrum. Aliquots (150 μL) of the donor solutions were added to a UV analysis plate and read as donor spectrum. The permeability coefficient of test compounds was calculated using PAMPA Explorer™ software (version 3.5.0.4) based on the AUC of the reference plate, the donor plate, and the acceptor plate.

T1 sequence (Q15858 whole entry): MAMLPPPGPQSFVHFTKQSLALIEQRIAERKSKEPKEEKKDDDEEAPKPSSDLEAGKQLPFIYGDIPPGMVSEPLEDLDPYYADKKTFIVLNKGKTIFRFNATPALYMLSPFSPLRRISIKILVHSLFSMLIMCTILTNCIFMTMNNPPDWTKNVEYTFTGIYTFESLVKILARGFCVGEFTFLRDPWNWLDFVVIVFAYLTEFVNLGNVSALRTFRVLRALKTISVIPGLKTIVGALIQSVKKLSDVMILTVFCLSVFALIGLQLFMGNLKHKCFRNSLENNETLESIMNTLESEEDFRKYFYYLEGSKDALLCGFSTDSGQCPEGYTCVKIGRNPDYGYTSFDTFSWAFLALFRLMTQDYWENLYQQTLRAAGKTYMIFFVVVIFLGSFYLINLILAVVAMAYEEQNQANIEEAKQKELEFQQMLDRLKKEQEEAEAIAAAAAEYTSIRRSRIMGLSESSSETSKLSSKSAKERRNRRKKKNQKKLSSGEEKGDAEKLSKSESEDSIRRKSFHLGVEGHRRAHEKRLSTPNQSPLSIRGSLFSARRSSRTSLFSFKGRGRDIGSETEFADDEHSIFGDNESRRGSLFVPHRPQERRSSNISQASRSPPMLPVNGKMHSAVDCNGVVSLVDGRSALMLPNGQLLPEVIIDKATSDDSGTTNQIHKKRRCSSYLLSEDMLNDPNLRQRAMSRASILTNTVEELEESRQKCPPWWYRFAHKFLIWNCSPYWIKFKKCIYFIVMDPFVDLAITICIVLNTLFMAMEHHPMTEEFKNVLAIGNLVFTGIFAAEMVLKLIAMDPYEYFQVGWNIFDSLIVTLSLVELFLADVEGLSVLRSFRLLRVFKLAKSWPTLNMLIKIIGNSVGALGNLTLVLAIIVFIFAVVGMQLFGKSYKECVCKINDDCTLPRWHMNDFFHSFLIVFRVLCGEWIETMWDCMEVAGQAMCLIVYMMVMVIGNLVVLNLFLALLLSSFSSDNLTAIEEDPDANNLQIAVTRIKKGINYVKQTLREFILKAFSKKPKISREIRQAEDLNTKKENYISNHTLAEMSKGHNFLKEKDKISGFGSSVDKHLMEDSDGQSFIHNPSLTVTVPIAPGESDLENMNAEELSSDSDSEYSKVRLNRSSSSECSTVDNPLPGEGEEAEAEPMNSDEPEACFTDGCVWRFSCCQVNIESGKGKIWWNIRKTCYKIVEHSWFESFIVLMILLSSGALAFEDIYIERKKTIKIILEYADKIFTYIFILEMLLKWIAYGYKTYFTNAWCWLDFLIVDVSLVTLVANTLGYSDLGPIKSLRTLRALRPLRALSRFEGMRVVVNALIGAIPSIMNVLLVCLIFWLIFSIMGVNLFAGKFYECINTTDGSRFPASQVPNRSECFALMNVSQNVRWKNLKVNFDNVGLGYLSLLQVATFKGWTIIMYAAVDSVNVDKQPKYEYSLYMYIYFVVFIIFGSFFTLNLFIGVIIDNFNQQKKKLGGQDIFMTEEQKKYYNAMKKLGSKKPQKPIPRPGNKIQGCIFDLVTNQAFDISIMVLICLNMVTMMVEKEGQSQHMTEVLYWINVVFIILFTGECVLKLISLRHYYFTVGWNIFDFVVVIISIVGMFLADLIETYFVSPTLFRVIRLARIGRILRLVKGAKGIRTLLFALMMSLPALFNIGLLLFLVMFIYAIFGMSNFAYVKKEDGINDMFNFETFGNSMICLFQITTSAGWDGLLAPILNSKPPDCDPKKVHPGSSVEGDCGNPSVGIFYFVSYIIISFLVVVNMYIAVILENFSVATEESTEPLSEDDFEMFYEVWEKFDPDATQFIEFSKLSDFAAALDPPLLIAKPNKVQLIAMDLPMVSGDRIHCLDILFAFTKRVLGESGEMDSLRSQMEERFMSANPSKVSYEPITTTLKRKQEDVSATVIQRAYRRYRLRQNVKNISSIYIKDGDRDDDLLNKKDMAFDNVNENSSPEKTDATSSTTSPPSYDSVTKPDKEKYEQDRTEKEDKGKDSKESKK

SMILES | inhibition at 10 µM [1] [%] | IC50 [2] [µM] | IC50 [3] [µM] | PAMPA (10^−6 cm/s) [4] | inhibition at 32 µM [1] [%]
Cc1cccc(C)c1NC(=O)C[n+]1cccc(C2CCCC2)c1 [Compound 21] | – | < 1 | < 10 | – | –
Cc1cccc(C)c1NC(=O)C[n+]1cc(-c2ccccc2)c2ccccc2c1 [Compound 100] | – | 1 to 3 | < 10 | – | –
Cc1cccc(C)c1NC(=O)C[n+]1cccc(-c2ccccc2)c1 [Compound 12] | – | 1 to 3 | 10 to 30 | – | –
Cc1cccc(C)c1NC(=O)C[n+]1cc(F)ccc1-c1ccccc1 [Compound 79] | > 95 | 1 to 3 | 30 to 100 | – | –
Cc1cccc(C)c1NC(=O)C[n+]1cccn1C1CCCCC1 [Compound 28] | – | < 1 | 30 to 100 | – | –
Cc1cccc(C)c1NC(=O)Cn1cc[n+](CC(=O)Nc2c(C)cccc2C)c1 [Compound 110] | 70 to 95 | 10 to 30 | – | ++ (0.1-2.0 10^−6 cm/s) | –
Cc1cccc(C)c1NC(=O)C[n+]1cc(F)c2ccccc2c1 [Compound 67] | 40 to 70 | 3 to 10 | < 10 | – | –
Cc1cccc(C)c1NC(=O)C[n+]1ccccc1-c1ccccc1 [Compound 16] | – | 1 to 3 | > 100 | – | –
Cc1cccc(C)c1NC(=O)C[n+]1cccn1-c1ccccc1 [Compound 29] | – | 3 to 10 | > 100 | – | –
Cc1cccc(C)c1NC(=O)C[n+]1c2ccc(Cl)cc2cn1C [Compound 96] | 70 to 95 | 3 to 10 | 30 to 100 | – | –
Cc1cccc(C)c1NC(=O)C[n+]1c(C)ccc(-c2ccccc2)c1C [Compound 23] | – | < 1 | < 10 | – | –
Cc1cccc(C)c1NC(=O)C[n+]1cccc(C(=O)OC2CCCC2)c1 [Compound 105] | – | 1 to 3 | – | – | –
Cc1cccc(C)c1NC(=O)C[n+]1cccc(C2CCCC2)c1.[Br-] [Compound 21A] | – | – | – | + (<0.1 10^−6 cm/s) | > 95
Cc1cccc(C)c1NC(=O)C[n+]1c(C)ccc(-c2ccccc2)c1C.[Br-] [Compound 23A] | – | – | – | + (<0.1 10^−6 cm/s) | > 95

More lines, now with the values ahead:

inhibition at 10 µM [1] [%] | IC50 [2] [µM] | IC50 [3] [µM] | PAMPA (10^−6 cm/s) [4] | inhibition at 32 µM [1] [%] | SMILES
70 to 95 | 1 to 3 | > 100 | – | – | CNC(=O)c1ccc[n+](CC(=O)Nc2c(C)cccc2C)c1 [Compound 40]
– | 3 to 10 | > 100 | – | – | Cc1cccc(C)c1NC(=O)C[n+]1cc(-c2ccccc2)n(C)c1 [Compound 24]
– | 3 to 10 | 30 to 100 | – | – | Cc1cccc(C)c1NC(=O)C[n+]1cccc(C2CC2)c1 [Compound 22]
– | 1 to 3 | > 100 | – | – | Cc1cccc(C)c1NC(=O)C[n+]1cccn1CC(C)C [Compound 27]
70 to 95 | 10 to 30 | < 10 | – | – | COc1cc(C#N)c[n+](CC(=O)Nc2c(C)cccc2C)c1 [Compound 97]
– | 1 to 3 | > 100 | – | – | CCNC(=O)Cn1ccc[n+]1CC(=O)Nc1c(C)cccc1C [Compound 30]
< 40 | 10 to 30 | – | + (<0.1 10^−6 cm/s) | – | Cc1cccc(C)c1NC(=O)C[n+]1cccc(-c2nn[nH]n2)c1 [Compound 53]
70 to 95 | 10 to 30 | – | ++ (0.1-2.0 10^−6 cm/s) | – | Cc1cccc(C)c1NC(=O)C[n+]1cc(CO)n(C(C)C)c1 [Compound 59]
70 to 95 | 3 to 10 | > 100 | – | – | Cc1cccc(C)c1NC(=O)C[n+]1cccc(N)c1 [Compound 49]
< 40 | – | – | + (<0.1 10^−6 cm/s) | – | CCNC(=O)Cn1cc[n+](CC(=O)Nc2c(C)cccc2C)c1 [Compound 62]
– | 1 to 3 | > 100 | – | – | Cc1cccc(C)c1NC(=O)C[n+]1c(C)cccc1C [Compound 6]
> 95 | – | – | + (<0.1 10^−6 cm/s) | – | CC(=O)Nc1ccc[n+](CC(=O)Nc2c(C)cccc2C)c1 [Compound 48]
